Test results as given in the NIST ThermoML archive (doi:10.1016/j.fluid.2012.10.002).
Where “and” joins values, the source holds several entries; their conditions need not be identical. Identical values can stand only once.

Experiment: xn = mol fraction of the nth substance listed
Conditions: Gas, Frequency=0.05 MHz, Linear variable-path acoustic interferometer

FC(F)(F)C(F)(F)F [hexafluoroethane] + FC(F)(F)C(F)(F)C(F)(F)F
x1 = 1
Conditions | speed of sound [m/s]
261.1 K, 183 kPa | 127.95
263.74 K, 185 kPa | 128.64
266.3 K, 186 kPa | 129.3
268.82 K, 188 kPa | 129.95
270.22 K, 189 kPa | 130.3
271.26 K, 190 kPa | 130.57
273.89 K, 192 kPa | 131.26
276.33 K, 194 kPa | 131.87
278.84 K, 195 kPa | 132.51
281.3 K, 197 kPa | 133.11
281.31 K, 197 kPa | 133.1
283.84 K, 199 kPa | 133.77
286.31 K, 201 kPa | 134.35
288.82 K, 203 kPa | 135
293.64 K, 206 kPa | 136.18
296.91 K, 208 kPa | 136.93
301.03 K, 212 kPa | 137.94
303.69 K, 213 kPa | 138.56
306.24 K, 215 kPa | 139.22
308.82 K, 217 kPa | 139.82
311.28 K, 219 kPa | 140.41
313.79 K, 221 kPa | 141
318.78 K, 224 kPa | 142.17
323.78 K, 228 kPa | 143.37

FC(F)(F)C(F)(F)C(F)(F)F [octafluoropropane] + FC(F)(F)C(F)(F)F
Conditions | speed of sound
258.87 K, 181 kPa, x2 = 0 | 104.06 m/s
261.04 K, 214 kPa, x2 = 0.146 | 106.6 m/s
261.17 K, 183 kPa, x2 = 0 | 104.66 m/s
263.69 K, 217 kPa, x2 = 0.146 | 107.31 m/s
266.22 K, 219 kPa, x2 = 0.146 | 107.96 m/s
268.73 K, 189 kPa, x2 = 0 | 106.57 m/s
268.76 K, 222 kPa, x2 = 0.146 | 108.61 m/s
270.28 K, 190 kPa, x2 = 0 | 106.94 m/s
271.52 K, 214 kPa, x2 = 0.11 | 108.77 m/s
271.54 K, 224 kPa, x2 = 0.146 | 109.31 m/s
273.74 K, 193 kPa, x2 = 0 | 107.79 m/s
273.82 K, 227 kPa, x2 = 0.146 | 109.89 m/s
273.86 K, 202 kPa, x2 = 0.048 | 108.5 m/s
273.88 K, 216 kPa, x2 = 0.11 | 109.36 m/s
273.9 K, 216 kPa, x2 = 0.11 | 109.35 m/s
276.23 K, 195 kPa, x2 = 0 | 108.4 m/s
276.3 K, 219 kPa, x2 = 0.11 | 109.94 m/s
276.35 K, 229 kPa, x2 = 0.146 | 110.52 m/s
278.61 K, 206 kPa, x2 = 0.048 | 109.65 m/s
278.75 K, 197 kPa, x2 = 0 | 109 m/s
279.06 K, 231 kPa, x2 = 0.146 | 111.21 m/s
281.01 K, 208 kPa, x2 = 0.048 | 110.21 m/s
281.09 K, 223 kPa, x2 = 0.11 | 111.13 m/s
281.24 K, 199 kPa, x2 = 0 | 109.59 m/s
281.35 K, 233 kPa, x2 = 0.146 | 111.76 m/s
281.94 K, 224 kPa, x2 = 0.11 | 111.33 m/s
283.42 K, 225 kPa, x2 = 0.11 | 111.69 m/s
283.48 K, 210 kPa, x2 = 0.048 | 110.83 m/s
283.81 K, 201 kPa, x2 = 0 | 110.19 m/s
284.05 K, 236 kPa, x2 = 0.146 | 112.44 m/s
285.85 K, 212 kPa, x2 = 0.048 | 111.38 m/s
285.87 K, 212 kPa, x2 = 0.048 | 111.39 m/s
285.92 K, 227 kPa, x2 = 0.11 | 112.29 m/s
286.31 K, 203 kPa, x2 = 0 | 110.78 m/s
286.39 K, 238 kPa, x2 = 0.146 | 112.99 m/s
288.79 K, 205 kPa, x2 = 0 | 111.35 m/s
288.96 K, 241 kPa, x2 = 0.146 | 113.61 m/s
290.79 K, 231 kPa, x2 = 0.11 | 113.46 m/s
291.2 K, 207 kPa, x2 = 0 | 111.92 m/s
291.22 K, 217 kPa, x2 = 0.048 | 112.64 m/s
291.37 K, 243 kPa, x2 = 0.146 | 114.18 m/s
293.19 K, 218 kPa, x2 = 0.048 | 113.11 m/s
293.86 K, 245 kPa, x2 = 0.146 | 114.77 m/s
294.01 K, 245 kPa, x2 = 0.146 | 114.81 m/s
294.82 K, 246 kPa, x2 = 0.146 | 115.01 m/s
294.96 K, 235 kPa, x2 = 0.11 | 114.43 m/s
295.16 K, 235 kPa, x2 = 0.11 | 114.49 m/s
295.22 K, 220 kPa, x2 = 0.048 | 113.57 m/s
295.26 K, 210 kPa, x2 = 0 | 112.82 m/s
295.26 K, 220 kPa, x2 = 0.048 | 113.58 m/s
295.28 K, 220 kPa, x2 = 0.048 | 113.59 m/s
296.26 K, 247 kPa, x2 = 0.146 | 115.34 m/s
297.13 K, 248 kPa, x2 = 0.146 | 115.54 m/s and 115.55 m/s
298.69 K, 250 kPa, x2 = 0.146 | 115.9 m/s
300.46 K, 224 kPa, x2 = 0.048 | 114.77 m/s
301.15 K, 215 kPa, x2 = 0 | 114.22 m/s
301.17 K, 252 kPa, x2 = 0.146 | 116.47 m/s
302.82 K, 226 kPa, x2 = 0.048 | 115.32 m/s
302.91 K, 242 kPa, x2 = 0.11 | 116.26 m/s
303.66 K, 254 kPa, x2 = 0.146 | 117.06 m/s
303.67 K, 216 kPa, x2 = 0 | 114.79 m/s
303.69 K, 217 kPa, x2 = 0 | 114.78 m/s
306.23 K, 219 kPa, x2 = 0 | 115.37 m/s
307.6 K, 230 kPa, x2 = 0.048 | 116.4 m/s
308.64 K, 259 kPa, x2 = 0.146 | 118.2 m/s
311.15 K, 261 kPa, x2 = 0.146 | 118.77 m/s
311.27 K, 223 kPa, x2 = 0 | 116.48 m/s
312.3 K, 234 kPa, x2 = 0.048 | 117.45 m/s
312.47 K, 251 kPa, x2 = 0.11 | 118.45 m/s
313.65 K, 264 kPa, x2 = 0.146 | 119.34 m/s
314.99 K, 253 kPa, x2 = 0.11 | 119.04 m/s
315.91 K, 237 kPa, x2 = 0.048 | 118.26 m/s
316.18 K, 266 kPa, x2 = 0.146 | 119.91 m/s
316.26 K, 226 kPa, x2 = 0 | 117.58 m/s
317.39 K, 255 kPa, x2 = 0.11 | 119.56 m/s
318.68 K, 268 kPa, x2 = 0.146 | 120.47 m/s
319.74 K, 257 kPa, x2 = 0.11 | 120.07 m/s
321.23 K, 230 kPa, x2 = 0 | 118.64 m/s
322.15 K, 259 kPa, x2 = 0.11 | 120.6 m/s
323.51 K, 273 kPa, x2 = 0.146 | 121.55 m/s
323.74 K, 232 kPa, x2 = 0 | 119.18 m/s
